PMC8659243, “Design, Synthesis and Tumour-Selective Toxicity of Novel 1-[3-{3,5-Bis(benzylidene)-4-oxo-1-piperidino}-3-oxopropyl]-4-piperidone Oximes and Related Quaternary Ammonium Salts” (Molecules, 2021)

Key:
[1] = tested on: Ca9-22, HSC-2 and HSC-4 cells; assay: Average over Ca9-22, HSC-2 and HSC-4 neoplastic cells; type: cell-based, human; conditions: for CC50: Homo sapiens, average of Ca9-22, HSC-2 and HSC-4, read-out: Average CC50; for Average SI: average of SI for Ca9-22, HSC-2 and HSC-4
Description: In order to assess whether the compounds in series 3 and 4 are more toxic to neoplasms than non-malignant cells, selective index (SI) figures were calculated. In the in vivo situation, a tumour is surrounded by a number of non-malignant cells.
In order to identify the most promising lead compounds in terms of both cytotoxic potencies and favourable SI values, potency–selectivity expression (PSE) values were computed. […] Outstanding results may be noted for four compounds that have PSE values in excess of 100,000 namely 3d, 4c–e. […] However, the relative SI/PSE distribution patterns between series 3 and 4 (from a to h) are nearly superimposable with each other (Figure 3). […] It has been reported that 3,5-bis(3-iodo-5-methoxy-4-propoxybenzylidene)-N-acetylpiperidin-4-one inhibited tubulin and destabilization of microtubules, while 3,5-bis(3,4,5-trimethoxybenzylidene)-N-benzoylpiperidin-4-one destabilizes the microtubules. Thus, it remained to investigate whether compound 4d acts as an inhibitor of the microtubule.
(§1) A literature procedure was followed when the compounds in series 3 and 4 were evaluated against three human oral squamous cell carcinoma cell lines Ca9-22 (RCB-1976), HSC-2 (RCB1945), HSC-4 (RCB1902) (purchased from RIKEN Cell Bank, Tukuba, Japan) and three human normal oral cells, gingival fibroblast (HGF), periodontal ligament fibroblast (HPLF) and pulp cells (HPC) (established according to the guideline of the intramural ethic committee, A0808) except the duration of incubation was increased from 24 h to 48 h. In brief, various concentrations of the compounds were added to the DMEM media, which was supplemented by 10% heat-inactivated fetal bovine serum. Incubation was undertaken at 37 °C. At the completion of the experiment, cell viability was determined by the MTT method.

[2] = Cytotoxicity against non-malignant HPC cells, MTT method, 48 h; type: cell-based; conditions: human, pulp cells (HPC)
Description: as §1

[3] = tested on: HSC-4 cells; assay: Cytotoxicity against HSC-4 cells, MTT method, 48 h; type: cell-based, human; conditions: for CC50: Homo sapiens, HSC-4, concentration required to kill 50% of the cells, 48 h, MTT, read-out: CC50 HSC-4; for SI HSC-4: average CC50 towards HGF, HPLF, HPC divided by CC50 against HSC-4
Description: as §1

[4] = tested on: Ca9-22 cells; assay: Cytotoxicity against Ca9-22 cells, MTT method, 48 h; type: cell-based, human; conditions: for CC50: Homo sapiens, Ca9-22, concentration required to kill 50% of the cells, 48 h, MTT, read-out: CC50 Ca9-22; for SI Ca9-22: average CC50 towards HGF, HPLF, HPC divided by CC50 against Ca9-22
Description: as §1

[5] = Cytotoxicity against non-malignant HPLF cells, MTT method, 48 h; type: cell-based; conditions: human, periodontal ligament fibroblasts (HPLF)
Description: as §1

[6] = tested on: HSC-2 cells; assay: Cytotoxicity against HSC-2 cells, MTT method, 48 h; type: cell-based, human; conditions: for CC50: Homo sapiens, HSC-2, concentration required to kill 50% of the cells, 48 h, MTT; for SI HSC-2: average CC50 towards HGF, HPLF, HPC divided by CC50 against HSC-2
Description: as §1

[7] = Average over HGF, HPLF and HPC non-malignant cells; type: cell-based; conditions: human, HPLF and HPC non-malignant cells (average of the three)
Description: as §1

[8] = tested on: CEM T-lymphoblastic leukemia cells; assay: Cytotoxicity against CEM cells, MTT method, 24 h; type: cell-based; conditions: Homo sapiens, CCRF-CEM, concentration required to inhibit cell growth by 50%
Description: The method used for the evaluation of various compounds against human CEM cells has been reported previously. In brief, cells were grown in RPMI-1640 medium supplemented with 10% heat-inactivated fetal bovine serum. Different concentrations of compounds were added to the media, and after 24 h incubation, cytotoxicity was measured by the MTT method.

[9] = Cytotoxicity against non-malignant HGF cells, MTT method, 48 h; type: cell-based; conditions: human, gingival fibroblasts (HGF)
Description: as §1

[10] = tested on: HCC-2998 cells; assay: NCI in vitro screen, colon cancer HCC-2998; type: cell-based; conditions: Homo sapiens
Text: (§2) One particular reference drug is 5-fluorouracil, which is used in treating colon cancers.

[11] = tested on: HCT-15 cells; assay: NCI in vitro screen, colon cancer HCT-15; type: cell-based; conditions: Homo sapiens
Text: as §2

[12] = tested on: SW-620 cells; assay: NCI in vitro screen, colon cancer SW-620; type: cell-based; conditions: Homo sapiens
Text: as §2

[13] = tested on: SR cells; assay: NCI in vitro screen, leukemia SR; type: cell-based; conditions: Homo sapiens
Text: (§3) In view of the encouraging result with CEM leukemic cells, consideration was given to an assessment in the NCI in vitro screening program. The oximes, but not the quaternary ammonium salts, were accepted for bioevaluation. Examination of the mean graphs confirms the sensitivity of leukemic cells to these compounds.

[14] = tested on: colon cancer cells; assay: NCI in vitro screen, average of colon cancer cells; type: cell-based; conditions: Homo sapiens
Text: as §2

[15] = tested on: RPMI-8226 cells; assay: NCI in vitro screen, leukemia RPMI-8226; type: cell-based; conditions: Homo sapiens
Text: as §3

[16] = tested on: K-562 cells; assay: NCI in vitro screen, leukemia K-562; type: cell-based; conditions: Homo sapiens, K562
Text: as §3

[17] = tested on: HCT-116 cells; assay: NCI in vitro screen, colon cancer HCT-116; type: cell-based; conditions: Homo sapiens
Text: as §2

[18] = tested on: Molt-4 cells; assay: NCI in vitro screen, leukemia Molt-4; type: cell-based; conditions: Homo sapiens
Text: as §3

[19] = tested on: Colo205 cells; assay: NCI in vitro screen, colon cancer Colo205; type: cell-based; conditions: Homo sapiens, COLO 205
Text: as §2

[20] = tested on: All Cell Lines; assay: NCI in vitro screen, all cell lines; type: cell-based; conditions: Homo sapiens
Text: as §2

[21] = tested on: HT29 cells; assay: NCI in vitro screen, colon cancer HT29; type: cell-based; conditions: Homo sapiens, HT-29
Text: as §2

[22] = tested on: leukemia cells; assay: NCI in vitro screen, average of leukemia cells; type: cell-based; conditions: Homo sapiens
Text: as §3

[23] = tested on: HL-60 (TB) cells; assay: NCI in vitro screen, leukemia HL-60 (TB); type: cell-based; conditions: Homo sapiens
Text: as §3

[24] = tested on: KM12 cells; assay: NCI in vitro screen, colon cancer KM12; type: cell-based; conditions: Homo sapiens
Text: as §2

O=C1/C(=C/c2ccc(O)cc2)CN(C(=O)CCN2CCC(=NO)CC2)C/C1=C\c1ccc(O)cc1 [Compound 3i, (3~{E},5~{E})-3,5-bis[(4-hydroxyphenyl)methylene]-1-[3-(4-hydroximino-1-piperidyl)propanoyl]piperidin-4-one]
CC50 [1]: 17900 nM | Average SI [1]: 4.71 | CC50 at 48 h [2]: 99300 ± 1160 nM | CC50 [3]: 19300 ± 1610 nM | SI HSC-4 [3]: 4.36 | CC50 [4]: 16500 ± 2350 nM | SI Ca9-22 [4]: 5.10 | CC50 at 48 h [5]: 88300 ± 4560 nM | CC50 [6]: 18000 ± 2060 nM | SI HSC-2 [6]: 4.68 | CC50 at 48 h [7]: 84200 nM | IC50 [8]: 11100 ± 1010 nM | CC50 at 48 h [9]: 64900 ± 5660 nM

Cc1ccc(/C=C2\CN(C(=O)CC[N+]3(C)CCC(=NO)CC3)C/C(=C\c3ccc(C)cc3)C2=O)cc1 (stereo not drawn) [Compound 4f, (3~{E},5~{E})-3,5-bis[(4-methylphenyl)methylene]-1-[3-(4-hydroximino-1-piperidyl)propanoyl]piperidin-4-one methiodide]
CC50 [1]: 350 nM | Average SI [1]: 32.6 | CC50 at 48 h [2]: 15200 ± 1900 nM | CC50 [3]: 400 ± 230 nM | SI HSC-4 [3]: 23.9 | CC50 [4]: 180 ± 20 nM | SI Ca9-22 [4]: 53.1 | CC50 at 48 h [5]: 8370 ± 810 nM | CC50 [6]: 460 ± 100 nM | SI HSC-2 [6]: 20.8 | CC50 at 48 h [7]: 9560 nM | IC50 [8]: 4180 ± 650 nM | CC50 at 48 h [9]: 5120 ± 240 nM

COc1cc(/C=C2\CN(C(=O)CC[N+]3(C)CCC(=NO)CC3)C/C(=C\c3cc(OC)c(OC)c(OC)c3)C2=O)cc(OC)c1OC (stereo not drawn) [Compound 4h, (3~{E},5~{E})-1-[3-(4-hydroximino-1-piperidyl)propanoyl]-3,5-bis[(3,4,5-trimethoxyphenyl)methylene]piperidin-4-one methiodide]
CC50 [1]: 160 nM | Average SI [1]: 11.6 | CC50 at 48 h [2]: 2350 ± 820 nM | CC50 [3]: 180 ± 40 nM | SI HSC-4 [3]: 7.94 | CC50 [4]: 70 ± 10 nM | SI Ca9-22 [4]: 20.4 | CC50 at 48 h [5]: 1320 ± 40 nM | CC50 [6]: 220 ± 40 nM | SI HSC-2 [6]: 6.50 | CC50 at 48 h [7]: 1430 nM | IC50 [8]: 5120 ± 140 nM | CC50 at 48 h [9]: 620 ± 60 nM

O=C1/C(=C/c2ccc([N+](=O)[O-])cc2)CN(C(=O)CCN2CCC(=NO)CC2)C/C1=C\c1ccc([N+](=O)[O-])cc1 [Compound 3e, (3~{E},5~{E})-1-[3-(4-hydroximino-1-piperidyl)propanoyl]-3,5-bis[(4-nitrophenyl)methylene]piperidin-4-one]
IC50 [10]: 1170 nM | CC50 [1]: 80 nM | Average SI [1]: 57.5 | IC50 [11]: 360 nM | CC50 at 48 h [2]: 5070 ± 210 nM | IC50 [12]: 200 nM | IC50 [13]: 100 nM | IC50 [14]: 460 nM | IC50 [15]: 300 nM | IC50 [16]: 280 nM | CC50 [3]: 90 ± 20 nM | SI HSC-4 [3]: 36.3 | CC50 [4]: 30 nM | SI Ca9-22 [4]: 109 | IC50 [17]: 490 nM | IC50 [18]: 400 nM | IC50 [19]: 400 nM | IC50 [20]: 1790 nM | CC50 at 48 h [5]: 3060 ± 160 nM | IC50 [21]: 330 nM | IC50 [22]: 500 nM | IC50 [23]: 1550 nM | IC50 [24]: 290 nM | CC50 [6]: 120 ± 90 nM | SI HSC-2 [6]: 27.3 | CC50 at 48 h [7]: 3270 nM | IC50 [8]: 11600 ± 310 nM | CC50 at 48 h [9]: 1670 ± 310 nM

COc1cccc2c1C(=O)c1c(O)c3c(c(O)c1C2=O)C[C@@](O)(C(=O)CO)C[C@@H]3O[C@H]1C[C@H](N)[C@H](O)[C@H](C)O1 [Doxorubicin, reference compound]
CC50 [1]: 240 nM | Average SI [1]: 43.6 | CC50 at 48 h [2]: 8770 ± 2140 nM | CC50 [3]: 150 ± 50 nM | SI HSC-4 [3]: 48.7 | CC50 [4]: 470 ± 120 nM | SI Ca9-22 [4]: 15.6 | CC50 at 48 h [5]: 9730 ± 470 nM | CC50 [6]: 110 ± 10 nM | SI HSC-2 [6]: 66.5 | CC50 at 48 h [7]: 7310 nM | CC50 at 48 h [9]: 3440 ± 530 nM

C[N+]1(CCC(=O)N2C/C(=C\c3ccc([N+](=O)[O-])cc3)C(=O)/C(=C/c3ccc([N+](=O)[O-])cc3)C2)CCC(=NO)CC1 (stereo not drawn) [Compound 4e, (3~{E},5~{E})-1-[3-(4-hydroximino-1-piperidyl)propanoyl]-3,5-bis[(4-nitrophenyl)methylene]piperidin-4-one methiodide]
CC50 [1]: 40 nM | Average SI [1]: 60.0 | CC50 at 48 h [2]: 2460 ± 1230 nM | CC50 [3]: 60 ± 10 nM | SI HSC-4 [3]: 34.5 | CC50 [4]: 20 nM | SI Ca9-22 [4]: 104 | CC50 at 48 h [5]: 2590 ± 270 nM | CC50 [6]: 50 ± 10 nM | SI HSC-2 [6]: 41.4 | CC50 at 48 h [7]: 2070 nM | IC50 [8]: 870 ± 20 nM | CC50 at 48 h [9]: 1150 ± 350 nM

COc1ccc(/C=C2\CN(C(=O)CC[N+]3(C)CCC(=NO)CC3)C/C(=C\c3ccc(OC)cc3)C2=O)cc1 (stereo not drawn) [Compound 4g, (3~{E},5~{E})-3,5-bis[(4-methoxyphenyl)methylene]-1-[3-(4-hydroximino-1-piperidyl)propanoyl]piperidin-4-one methiodide]
CC50 [1]: 550 nM | Average SI [1]: 26.3 | CC50 at 48 h [2]: 15600 ± 3160 nM | CC50 [3]: 660 ± 50 nM | SI HSC-4 [3]: 19.2 | CC50 [4]: 310 ± 170 nM | SI Ca9-22 [4]: 41.0 | CC50 at 48 h [5]: 16200 ± 4050 nM | CC50 [6]: 680 ± 40 nM | SI HSC-2 [6]: 18.7 | CC50 at 48 h [7]: 12700 nM | IC50 [8]: 13000 ± 950 nM | CC50 at 48 h [9]: 6300 ± 270 nM
